In publication PMC6445106, “Structural and biochemical evidence supporting poly ADP-ribosylation in the bacterium Deinococcus radiodurans” (Nature Communications, 2019):

Legend:
DrPARG [1] = biological target: T1, DrPARG (Deinococcus radiodurans, UniProt Q9RZM4, E112A); assay: isothermal titration calorimetry; settings: 25 °C, 20 mM Tris-HCl pH 7.0, 100 mM NaCl; independent binding model
T1 construct: gene DR_B0099, pET28a, E. coli BL21(DE3); N-terminal His-tag cut with thrombin, GSHM left at N terminus; monomer, Mr 32 kDa; residues 100-110 GGGFLGGAQAQ
T1 sequence (Q9RZM4 entry or part of it E112A): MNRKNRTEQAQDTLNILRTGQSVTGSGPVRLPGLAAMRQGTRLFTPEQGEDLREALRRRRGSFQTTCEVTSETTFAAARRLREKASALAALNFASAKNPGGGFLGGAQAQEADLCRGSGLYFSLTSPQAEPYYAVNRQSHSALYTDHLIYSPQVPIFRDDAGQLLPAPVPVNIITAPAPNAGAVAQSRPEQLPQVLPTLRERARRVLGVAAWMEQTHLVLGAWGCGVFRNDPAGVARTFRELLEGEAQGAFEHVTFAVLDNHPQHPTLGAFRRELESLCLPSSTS
Text: (§1) isothermal titration calorimetry on DrPARG

DrPARG [2] = biological target: T2, DrPARG (Deinococcus radiodurans, UniProt Q9RZM4, T267K); assay: isothermal titration calorimetry; settings: 25 °C, 20 mM Tris-HCl pH 7.0, 100 mM NaCl; independent binding model
T2 construct: gene DR_B0099, pET28a, E. coli BL21(DE3); N-terminal His-tag cut with thrombin, GSHM left at N terminus; monomer, Mr 32 kDa; residues 100-110 GGGFLGGAQAQ
T2 sequence (Q9RZM4 entry or part of it T267K): as the sequence (Q9RZM4 entry or part of it E112A) above, with A112E, T267K counted along it
Text: as §1

DrPARG [3] = biological target: T3, DrPARG (Deinococcus radiodurans, UniProt Q9RZM4); assay: isothermal titration calorimetry; settings: 25 °C, 20 mM Tris-HCl pH 7.0, 100 mM NaCl; independent binding model; complex also as PDB 5ZDC, 5ZDD, 5ZDE
T3 construct: gene DR_B0099, pET28a, E. coli BL21(DE3); N-terminal His-tag cut with thrombin, GSHM left at N terminus; monomer, Mr 32 kDa; residues 100-110 GGGFLGGAQAQ
T3 sequence (Q9RZM4 1-285): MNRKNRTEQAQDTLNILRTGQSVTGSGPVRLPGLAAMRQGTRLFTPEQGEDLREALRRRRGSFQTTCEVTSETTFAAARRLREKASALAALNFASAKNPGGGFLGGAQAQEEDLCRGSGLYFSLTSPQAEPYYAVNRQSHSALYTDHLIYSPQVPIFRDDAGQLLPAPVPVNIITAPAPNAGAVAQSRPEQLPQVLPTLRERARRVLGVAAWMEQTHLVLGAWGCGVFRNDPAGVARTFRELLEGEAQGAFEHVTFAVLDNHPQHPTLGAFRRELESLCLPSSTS
Text: as §1

DrPARG [4] = biological target: T4, DrPARG (Deinococcus radiodurans, UniProt Q9RZM4, T267R); assay: isothermal titration calorimetry; settings: 25 °C, 20 mM Tris-HCl pH 7.0, 100 mM NaCl; independent binding model
T4 construct: gene DR_B0099, pET28a, E. coli BL21(DE3); N-terminal His-tag cut with thrombin, GSHM left at N terminus; monomer, Mr 32 kDa; residues 100-110 GGGFLGGAQAQ
T4 sequence (Q9RZM4 entry or part of it T267R): as the sequence (Q9RZM4 entry or part of it E112A) above, with A112E, T267R counted along it
Text: as §1

DrPARG [5] = biological target: T3, DrPARG; assay: CD thermal denaturation at […] nm; assay type: binding; settings: 10 µM protein, 30 µM ADP-ribose, 20 mM phosphate pH 7.5; printed as "increased Tm by 46.5 °C", read as Tm of complex

SMILES: Nc1ncnc2c1ncn2[C@@H]1O[C@H](COP(=O)(O)OP(=O)(O)OC[C@H]2OC(O)[C@H](O)[C@@H]2O)[C@@H](O)[C@H]1O (some centres unmarked) [ADP-ribose]
- Kd (DrPARG [1]): 2020 ± 70 nM
- Kd (DrPARG [2]): 1980 ± 20 nM
- Kd (DrPARG [3]): 1780 ± 50 nM
- Kd (DrPARG [4]): 3760 ± 470 nM
- Tm with ligand (apo 45.2) (DrPARG [5]): 46.5 °C
